{
  "source": "paper PMC3539767",
  "about": "(Bioorganic & medicinal chemistry letters, 2012)",
  "key": {"rat mGlu5": {"molecular_target": "rat mGlu5 (Rattus norvegicus, UniProt P31424)", "sequence (P31424 21-1203)": "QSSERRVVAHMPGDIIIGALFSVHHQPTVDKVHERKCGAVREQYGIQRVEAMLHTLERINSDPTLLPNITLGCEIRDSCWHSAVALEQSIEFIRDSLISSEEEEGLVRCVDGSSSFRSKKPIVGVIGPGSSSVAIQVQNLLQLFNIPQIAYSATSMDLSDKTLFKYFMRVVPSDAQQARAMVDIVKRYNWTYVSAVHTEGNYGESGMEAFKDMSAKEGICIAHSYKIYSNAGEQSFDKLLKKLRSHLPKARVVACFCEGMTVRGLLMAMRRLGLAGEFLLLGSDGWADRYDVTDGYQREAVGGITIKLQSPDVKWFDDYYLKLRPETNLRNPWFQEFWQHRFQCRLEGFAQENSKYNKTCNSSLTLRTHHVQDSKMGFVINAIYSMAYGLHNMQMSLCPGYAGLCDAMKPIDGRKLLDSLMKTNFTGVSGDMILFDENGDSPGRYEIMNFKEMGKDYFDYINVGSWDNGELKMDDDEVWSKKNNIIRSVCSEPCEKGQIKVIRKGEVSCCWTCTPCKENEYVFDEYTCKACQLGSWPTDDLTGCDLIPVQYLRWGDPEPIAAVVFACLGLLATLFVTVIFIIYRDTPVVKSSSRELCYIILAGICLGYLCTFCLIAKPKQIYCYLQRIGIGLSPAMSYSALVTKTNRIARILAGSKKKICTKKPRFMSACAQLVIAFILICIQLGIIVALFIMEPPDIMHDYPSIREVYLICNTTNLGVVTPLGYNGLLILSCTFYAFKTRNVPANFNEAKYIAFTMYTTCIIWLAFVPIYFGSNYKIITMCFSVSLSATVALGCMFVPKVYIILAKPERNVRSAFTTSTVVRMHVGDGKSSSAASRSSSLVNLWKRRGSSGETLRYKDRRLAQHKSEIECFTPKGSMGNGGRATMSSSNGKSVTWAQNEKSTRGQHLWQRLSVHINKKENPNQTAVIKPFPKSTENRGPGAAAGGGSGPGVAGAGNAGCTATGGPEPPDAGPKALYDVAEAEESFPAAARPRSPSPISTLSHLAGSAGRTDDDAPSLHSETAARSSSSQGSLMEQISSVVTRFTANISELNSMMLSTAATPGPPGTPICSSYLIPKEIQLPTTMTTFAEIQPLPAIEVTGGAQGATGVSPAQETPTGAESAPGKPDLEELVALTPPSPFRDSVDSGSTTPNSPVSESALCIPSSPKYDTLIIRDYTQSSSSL", "assay": "calcium mobilization PAM assay, high-expressing rat mGlu5 HTS cell line", "assay_type": "cell-based", "details": "for % Glu Max (rmGlu5): rat mGlu5 cell line; for allosteric agonist activity: rat mGlu5 (ago-PAM); for mGlu5 PAM activity: rat mGlu5, high expressing rat cell line"}, "human mGlu5": {"molecular_target": "human mGlu5 (Homo sapiens, UniProt P41594)", "sequence (P41594 21-1212)": "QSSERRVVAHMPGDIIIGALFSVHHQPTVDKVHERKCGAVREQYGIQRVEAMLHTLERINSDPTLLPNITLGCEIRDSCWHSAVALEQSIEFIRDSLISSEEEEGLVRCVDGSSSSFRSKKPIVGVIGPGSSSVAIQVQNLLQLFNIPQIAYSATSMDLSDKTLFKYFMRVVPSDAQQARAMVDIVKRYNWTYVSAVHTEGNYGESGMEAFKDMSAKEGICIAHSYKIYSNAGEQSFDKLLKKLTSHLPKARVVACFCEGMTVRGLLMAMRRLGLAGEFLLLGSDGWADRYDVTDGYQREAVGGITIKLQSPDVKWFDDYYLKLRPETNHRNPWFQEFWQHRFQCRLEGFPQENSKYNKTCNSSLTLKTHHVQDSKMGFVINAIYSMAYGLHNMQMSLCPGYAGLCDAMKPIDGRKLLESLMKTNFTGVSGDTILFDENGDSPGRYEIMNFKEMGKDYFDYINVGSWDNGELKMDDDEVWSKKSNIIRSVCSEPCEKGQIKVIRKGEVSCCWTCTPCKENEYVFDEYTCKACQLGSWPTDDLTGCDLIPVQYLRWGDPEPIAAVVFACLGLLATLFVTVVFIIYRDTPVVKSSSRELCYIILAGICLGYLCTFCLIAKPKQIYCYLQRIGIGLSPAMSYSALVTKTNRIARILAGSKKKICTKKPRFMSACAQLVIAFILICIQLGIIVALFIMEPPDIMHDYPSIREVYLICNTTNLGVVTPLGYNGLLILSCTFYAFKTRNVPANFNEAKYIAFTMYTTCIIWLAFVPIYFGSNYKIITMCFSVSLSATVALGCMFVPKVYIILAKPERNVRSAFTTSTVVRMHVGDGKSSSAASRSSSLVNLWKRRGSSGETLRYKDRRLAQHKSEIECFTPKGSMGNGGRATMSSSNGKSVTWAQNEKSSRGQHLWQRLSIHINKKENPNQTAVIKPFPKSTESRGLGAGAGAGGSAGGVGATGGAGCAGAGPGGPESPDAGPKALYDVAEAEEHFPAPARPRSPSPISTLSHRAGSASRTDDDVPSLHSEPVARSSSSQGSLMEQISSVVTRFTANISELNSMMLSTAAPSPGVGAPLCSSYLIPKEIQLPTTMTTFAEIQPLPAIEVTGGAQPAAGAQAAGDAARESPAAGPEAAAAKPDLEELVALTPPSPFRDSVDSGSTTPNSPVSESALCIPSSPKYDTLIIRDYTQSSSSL", "assay": "PAM assay in lower expressing human mGlu5 cell line", "assay_type": "cell-based"}, "mGlu5 MPEP site": {"molecular_target": "mGlu5 MPEP site (Rattus norvegicus, UniProt P31424)", "sequence (P31424 21-1203)": "as the sequence (P31424 21-1203) above", "assay": "[3H]-methoxyPEPy radioligand displacement", "assay_type": "binding"}, "Na": {"test_system": "Na", "assay": "cardiovascular safety ion channel panel, Na", "assay_type": "biochemical", "details": "read-out: IC50 Na; functional activity"}, "Ca": {"test_system": "Ca", "assay": "cardiovascular safety ion channel panel, Ca", "assay_type": "biochemical", "details": "read-out: IC50 Ca; functional activity"}, "[1]": {"test_system": "68 GPCRs, ion channels and transporters", "assay": "Ricerca radioligand binding panel", "details": "at 10 μM; 68 targets"}, "[2]": {"assay": "rat plasma protein binding", "assay_type": "in vitro ADME"}, "[3]": {"assay": "human plasma protein binding", "assay_type": "in vitro ADME"}, "[4]": {"details": "membranes isolated from rmGlu5, up to 30 μM compound"}},
  "data": [
    {"smiles": "CS(=O)(=O)N(CC(=O)Nc1ccc(F)cn1)c1ccccc1Cl", "note": "[15b]", "values": [
      {"measurement": "% Glu Max (rmGlu5)", "setting": "rat mGlu5", "result": 66, "unit": "% Glu Max"}
    ]},
    {"smiles": "CS(=O)(=O)N(CC(=O)Nc1cccnc1F)c1ccccc1Cl", "note": "[15c]", "values": [
      {"measurement": "% Glu Max (rmGlu5)", "setting": "rat mGlu5", "result": 64, "unit": "% Glu Max"},
      {"measurement": "% Glu Max (hmGlU5)", "setting": "human mGlu5", "result": 42, "unit": "% Glu Max"}
    ]},
    {"smiles": "CS(=O)(=O)N(CC(=O)Nc1cccc(Cl)c1)c1ccccc1Cl", "note": "[compound 9]", "values": [
      {"measurement": "EC50", "setting": "rat mGlu5", "result": 0.098, "unit": "µM"},
      {"measurement": "allosteric agonist activity", "setting": "rat mGlu5", "result": "strong allosteric agonist activity"},
      {"measurement": "fold shift", "setting": "rat mGlu5; rat mGlu5, value for 15a estimated because of agonist activity", "result": 7.9, "unit": "fold"},
      {"measurement": "% Glu Max (rmGlu5)", "setting": "rat mGlu5", "result": 74, "unit": "% Glu Max"},
      {"measurement": "% Glu Max (hmGlU5)", "setting": "human mGlu5", "result": 63, "unit": "% Glu Max"}
    ]},
    {"smiles": "O=S(=O)(c1ccc(C#Cc2cccc(F)c2)cc1)N1CCOCC1", "note": "[compound 25]", "values": [
      {"measurement": "mGlu5 PAM activity", "setting": "rat mGlu5", "result": "weak to moderately active PAMs"},
      {"measurement": "displacement of [3H]-methoxyPEPy", "setting": "mGlu5 MPEP site; [4]", "result": "no displacement"}
    ]},
    {"smiles": "O=S(=O)(c1ccc(F)cc1)N1CCC[C@H](c2nc(-c3ccc(F)cc3)no2)C1", "note": "[compound 26]", "values": [
      {"measurement": "mGlu5 PAM activity", "setting": "rat mGlu5", "result": "weak to moderately active PAMs"},
      {"measurement": "displacement of [3H]-methoxyPEPy", "setting": "mGlu5 MPEP site; [4]", "result": "no displacement"},
      {"measurement": "mGlu5 PAM activity", "setting": "human mGlu5", "result": "weak PAM"}
    ]},
    {"smiles": "CS(=O)(=O)N(CC(=O)Nc1ccccc1)c1ccccc1Cl", "note": "[15a]", "values": [
      {"measurement": "allosteric agonist activity", "setting": "rat mGlu5", "result": "strong allosteric agonist activity"},
      {"measurement": "% Glu Max (rmGlu5)", "setting": "rat mGlu5", "result": 61, "unit": "% Glu Max"},
      {"measurement": "% Glu Max (hmGlU5)", "setting": "human mGlu5", "result": 77, "unit": "% Glu Max"}
    ]},
    {"smiles": "CS(=O)(=O)N(CC(=O)NCC1CC1)c1cc(C(F)(F)F)ccc1Cl", "note": "[compound 24]", "values": [
      {"measurement": "mGlu5 PAM activity", "setting": "rat mGlu5", "result": "moderately potent"},
      {"measurement": "displacement of [3H]-methoxyPEPy", "setting": "mGlu5 MPEP site; in words", "result": "did not displace"},
      {"measurement": "IC50", "setting": "Na", "result": "> 10", "unit": "µM"},
      {"measurement": "IC50", "setting": "Ca", "result": "> 10", "unit": "µM"},
      {"measurement": "inhibition in Ricerca radioligand binding panel", "setting": "[1]", "result": "< 50", "unit": "% inhibition"},
      {"measurement": "plasma protein binding", "setting": "[2]", "result": "significantly reduced"},
      {"measurement": "mGlu5 PAM activity", "setting": "human mGlu5", "result": "moderately potent"},
      {"measurement": "plasma protein binding", "setting": "[3]", "result": "significantly reduced"}
    ]}
  ]
}
